Our source for the T/C values is PubChem BioAssay AID290 (DTP/NCI, 2004).

The test system of the assay is mice, P1798 lymphosarcoma sc, survival or tumor weight T/C. The assay can be described thus: NCI In Vivo Anticancer Drug Screen. Data for tumor model P1798 Lymphosarcoma (subcutaneous) in unknown mice. The conditions noted are these: endpoint: mean tumor weight, higher = larger tumour. On the procedure:
The antitumor activity of compounds was measured in mice bearing transplantable tumors. Survival or tumor size were measured and the results are expressed as the measurement made in the treated group (T) divided by the measurement made in the vehicle treated control group (C). The tumor model used in this assay is P1798 Lymphosarcoma (subcutaneous) in unknown mice

Where [1] appears, read: dose: 62.5 mg/kg/injection, schedule: Q01DX010 (ip), vehicle: carboxymethylcellulose (CMC).
Setting [2] is: dose: 125.0 mg/kg/injection, schedule: Q01DX010 (ip), vehicle: carboxymethylcellulose (CMC).
Where [3] appears, read: dose: 250.0 mg/kg/injection, schedule: Q01DX010 (ip), vehicle: carboxymethylcellulose (CMC).
Where [4] appears, read: dose: 8.0 mg/kg/injection, schedule: Q01DX010 (ip), vehicle: saline.

SMILES strings stand for the structures. Several values for one entry are separate records, joined by “and”; a condition that tells them apart may be missing. Identical values can stand only once. Records with an inconclusive call do not appear.

Take `Clc1ncnc2nc[nH]c12`: the T/C by setting is: (dose: 31.25 mg/kg/injection, schedule: Q01DX010 (ip), vehicle: carboxymethylcellulose (CMC)) 106 % of control; under setting [1], 95 % of control; under setting [2], 92 % of control; under setting [3], 79 % of control.

As to `Nc1nc(=S)c2[nH]cnc2[nH]1`, the T/C is 77 % of control (dose: 0.12 mg/kg/injection, schedule: Q01DX010 (ip), vehicle: carboxymethylcellulose (CMC)); 64 % of control (dose: 0.25 mg/kg/injection, schedule: Q01DX010 (ip), vehicle: carboxymethylcellulose (CMC)); 81 % of control (dose: 0.5 mg/kg/injection, schedule: Q01DX010 (ip), vehicle: carboxymethylcellulose (CMC)).

Regarding `O=CCC(O)C(O)C(O)CO` (stereo unspecified), the T/C (dose: 16.0 mg/kg/injection, schedule: Q01DX010 (ip), vehicle: carboxymethylcellulose (CMC)) is 67 % of control; the T/C (dose: 31.2 mg/kg/injection, schedule: Q01DX010 (ip), vehicle: carboxymethylcellulose (CMC)) is 74 % of control; the T/C under setting [1] is 70 % of control; the T/C under setting [2] is 36 % of control and 61 % of control; the T/C under setting [3] is 44 % of control; the T/C (dose: 500.0 mg/kg/injection, schedule: Q01DX010 (ip), vehicle: carboxymethylcellulose (CMC)) was 42 % of control. For the same compound, under “dose: 1000.0 mg/kg/injection, schedule: Q01DX010 (ip), vehicle: carboxymethylcellulose (CMC)”, the T/C is 19 % of control.

For the compound `c1ccc(CNc2ncnc3[nH]ncc23)cc1`, the T/C (dose: 15.6 mg/kg/injection, schedule: Q01DX010 (ip), vehicle: carboxymethylcellulose (CMC)) was 82 % of control.

Regarding `O=C(Nc1ccc(C2=NCCCN2)cc1)c1ccc(NC(=O)c2ccc(C3=NCCCN3)cc2)cc1`, the T/C (dose: 2.0 mg/kg/injection, schedule: Q01DX010 (ip), vehicle: carboxymethylcellulose (CMC)) was 73 % of control; the T/C (dose: 4.0 mg/kg/injection, schedule: Q01DX010 (ip), vehicle: carboxymethylcellulose (CMC)) was 50 % of control; the T/C (dose: 8.0 mg/kg/injection, schedule: Q01DX010 (ip), vehicle: carboxymethylcellulose (CMC)) was 15 % of control.

Turning to `O=C(O)C(=O)c1ccc(-c2ccccc2)cc1`, the T/C reads like this: (dose: 31.0 mg/kg/injection, schedule: Q01DX010 (ip), vehicle: methylcellulose (MC)) 82 % of control; (dose: 62.5 mg/kg/injection, schedule: Q01DX010 (ip), vehicle: methylcellulose (MC)) 87 % of control; (dose: 125.0 mg/kg/injection, schedule: Q01DX010 (ip), vehicle: methylcellulose (MC)) 106 % of control.

For `CC/C(=C(/CC)c1ccc(O)cc1)c1ccc(O)cc1`, the T/C runs as follows: (dose: 62.5 mg/kg/injection, schedule: Q01DX010 (sc), vehicle: steriod suspending solution) 64 % of control; (dose: 125.0 mg/kg/injection, schedule: Q01DX010 (sc), vehicle: steriod suspending solution) 83 % of control; (dose: 500.0 mg/kg/injection, schedule: Q01DX010 (sc), vehicle: steriod suspending solution) 39 % of control.

With `Nc1nc2n[nH]nc2c(=O)[nH]1`, the T/C runs as follows: (dose: 50.0 mg/kg/injection, schedule: Q01DX010 (ip), vehicle: other) 67 % of control and 71 % of control and 88 % of control; (dose: 200.0 mg/kg/injection, schedule: Q01DX010 (ip), vehicle: other) 46 % of control.

Turning to `c1ccc(COCC[P+](c2ccccc2)(c2ccccc2)c2ccccc2)cc1`, the T/C (dose: 5.0 mg/kg/injection, schedule: Q01DX010 (ip), vehicle: saline) was 53 % of control and the T/C under setting [4] was 49 % of control.

Regarding `O=C(Nc1ccc(C2=NCCN2)cc1)c1ccc(C(=O)Nc2ccc(C3=NCCN3)cc2)cc1`, the T/C reads like this: under setting [4], 67 % of control; (dose: 16.0 mg/kg/injection, schedule: Q01DX010 (ip), vehicle: saline) 65 % of control; (dose: 32.0 mg/kg/injection, schedule: Q01DX010 (ip), vehicle: saline) 109 % of control; (dose: 64.0 mg/kg/injection, schedule: Q01DX010 (ip), vehicle: saline) 49 % of control.

On to `CC(CCC(C)OS(C)(=O)=O)OS(C)(=O)=O` (stereo unspecified), for which the T/C reads like this: (dose: 5.0 mg/kg/injection, schedule: Q01DX010 (ip), vehicle: carboxymethylcellulose (CMC)) 72 % of control; (dose: 10.0 mg/kg/injection, schedule: Q01DX010 (ip), vehicle: carboxymethylcellulose (CMC)) 93 % of control; (dose: 20.0 mg/kg/injection, schedule: Q01DX010 (ip), vehicle: carboxymethylcellulose (CMC)) 102 % of control; (dose: 40.0 mg/kg/injection, schedule: Q01DX010 (ip), vehicle: carboxymethylcellulose (CMC)) 83 % of control.

`O=c1[nH]c2cc(Cl)c(Cl)cc2o1`: the T/C runs as follows: (dose: 12.5 mg/kg/injection, schedule: Q01DX010 (ip), vehicle: carboxymethylcellulose (CMC)) 78 % of control; (dose: 25.0 mg/kg/injection, schedule: Q01DX010 (ip), vehicle: carboxymethylcellulose (CMC)) 76 % of control; (dose: 50.0 mg/kg/injection, schedule: Q01DX010 (ip), vehicle: carboxymethylcellulose (CMC)) 117 % of control; (dose: 100.0 mg/kg/injection, schedule: Q01DX010 (ip), vehicle: carboxymethylcellulose (CMC)) 61 % of control.

As for `CC[C@]1(O)C[C@H]2CN(CCc3c([nH]c4ccccc34)[C@@](C(=O)OC)(c3cc4c(cc3OC)N(C=O)[C@H]3[C@@](O)(C(=O)OC)[C@H](OC(C)=O)[C@]5(CC)C=CCN6CC[C@]43[C@@H]65)C2)C1`, the T/C runs as follows: (dose: 0.01 mg/kg/injection, schedule: Q01DX010 (ip), vehicle: water) 105 % of control; (dose: 0.03 mg/kg/injection, schedule: Q01DX010 (ip), vehicle: water) 105 % of control; (dose: 0.1 mg/kg/injection, schedule: Q01DX001 (ip), vehicle: saline) 120 % of control; (dose: 0.3 mg/kg/injection, schedule: Q01DX001 (ip), vehicle: saline) 45 % of control; (dose: 0.5 mg/kg/injection, schedule: Q01DX001 (ip), vehicle: saline) 40 % of control; (dose: 0.68 mg/kg/injection, schedule: Q01DX001 (ip), vehicle: saline) 10 % of control. In addition, the T/C (dose: 0.7 mg/kg/injection, schedule: Q01DX001 (ip), vehicle: saline) is 36 % of control; the T/C (dose: 1.35 mg/kg/injection, schedule: Q01DX001 (ip), vehicle: saline) was 3 % of control; the T/C (dose: 125.0 micrograms/kg/injection, schedule: Q01DX010 (ip), vehicle: water) is 16 % of control.

Regarding `CCC(=O)O[C@H]1CC[C@H]2[C@@H]3CCC4=CC(=O)CC[C@]4(C)[C@H]3CC[C@]12C`, the T/C by setting is: (dose: 150.0 mg/kg/injection, schedule: Q01DX010 (sc), vehicle: steriod suspending solution) 108 % of control; (dose: 300.0 mg/kg/injection, schedule: Q01DX010 (sc), vehicle: steriod suspending solution) 116 % of control; (dose: 600.0 mg/kg/injection, schedule: Q01DX010 (sc), vehicle: steriod suspending solution) 104 % of control.

For `CC(=O)Nc1ccc2nc3ccc(NC(C)=O)cc3[n+](-c3ccccc3)c2c1`, the T/C (dose: 25.0 mg/kg/injection, schedule: Q01DX010 (ip), vehicle: saline) is 56 % of control; the T/C (dose: 50.0 mg/kg/injection, schedule: Q01DX010 (ip), vehicle: saline) is 21 % of control; the T/C (dose: 100.0 mg/kg/injection, schedule: Q01DX010 (ip), vehicle: saline) was 12 % of control; the T/C (dose: 200.0 mg/kg/injection, schedule: Q01DX010 (ip), vehicle: saline) was 3 % of control.

`CS(=O)(=O)OCCCCOS(C)(=O)=O`: the T/C reads like this: (dose: 2.0 mg/kg/injection, schedule: Q01DX010 (ip), vehicle: methylcellulose (MC)) 74 % of control and 85 % of control; (dose: 4.0 mg/kg/injection, schedule: Q01DX010 (ip), vehicle: methylcellulose (MC)) 95 % of control; (dose: 8.0 mg/kg/injection, schedule: Q01DX010 (ip), vehicle: methylcellulose (MC)) 117 % of control and 92 % of control; (dose: 16.0 mg/kg/injection, schedule: Q01DX010 (ip), vehicle: methylcellulose (MC)) 50 % of control.

Regarding `CC(=O)[C@H]1CC[C@H]2[C@@H]3C[C@H](C)C4=CC(=O)CC[C@]4(C)[C@H]3C(=O)C[C@]12C`, the T/C by setting is: (dose: 12.5 mg/kg/injection, schedule: Q01DX010 (sc), vehicle: carboxymethylcellulose (CMC)) 101 % of control; (dose: 25.0 mg/kg/injection, schedule: Q01DX010 (sc), vehicle: carboxymethylcellulose (CMC)) 100 % of control; (dose: 50.0 mg/kg/injection, schedule: Q01DX010 (sc), vehicle: carboxymethylcellulose (CMC)) 115 % of control; (dose: 100.0 mg/kg/injection, schedule: Q01DX010 (sc), vehicle: carboxymethylcellulose (CMC)) 112 % of control; (dose: 200.0 mg/kg/injection, schedule: Q01DX010 (sc), vehicle: carboxymethylcellulose (CMC)) 117 % of control; (dose: 400.0 mg/kg/injection, schedule: Q01DX010 (sc), vehicle: carboxymethylcellulose (CMC)) 108 % of control.
